ChEMBL document CHEMBL1201862, “PubChem BioAssay data set” (2004)
Where “and” joins values, the source holds several entries; their conditions need not be identical. Equal values may be shown once.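 Test compounds were applied to cells in 96-well plates for 48 hours at 5 doses. GI50: concentration for 50% inhibition of growth.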 Calls of active or inactive are those of the source. Cut-off read from the data, not from the text of the source: active = GI50 up to about 1.1 µM and inactive = higher.

Columns and labels:
Experiment in all cases: NCI-60 cell line screen, 48 h
NCI-H460 = tested on: NCI-H460
HCT-116 = tested on: HCT-116
UACC-257 = tested on: UACC-257
M14 = tested on: M14
LOX IMVI = tested on: LOX IMVI
BT-549 = tested on: BT-549
SNB-19 = tested on: SNB-19
NCI-H226 = tested on: NCI-H226
SK-OV-3 = tested on: SK-OV-3
OVCAR-3 = tested on: OVCAR-3
MDA-N = tested on: MDA-N
EKVX = tested on: EKVX
TK-10 = tested on: TK-10
SF-539 = tested on: SF-539
A549 = tested on: A549
HCC 2998 = tested on: HCC 2998
UO-31 = tested on: UO-31
NCI/ADR-RES = tested on: NCI/ADR-RES
KM12 = tested on: KM12
MDA-MB-231 = tested on: MDA-MB-231
PC-3 = tested on: PC-3
IGROV-1 = tested on: IGROV-1
SK-MEL-5 = tested on: SK-MEL-5
NCI-H23 = tested on: NCI-H23
Hs-578T = tested on: Hs-578T
SF-295 = tested on: SF-295
HCT-15 = tested on: HCT-15
DU-145 = tested on: DU-145
786-0 = tested on: 786-0
OVCAR-5 = tested on: OVCAR-5
RXF 393 = tested on: RXF 393
HOP-62 = tested on: HOP-62
NCI-H522 = tested on: NCI-H522
ACHN = tested on: ACHN
MCF7 = tested on: MCF7
SNB-75 = tested on: SNB-75
UACC-62 = tested on: UACC-62
CAKI-1 = tested on: CAKI-1
COLO 205 = tested on: COLO 205
Malme-3M = tested on: Malme-3M
SF-268 = tested on: SF-268
CCRF-CEM = tested on: CCRF-CEM
U-251 = tested on: U-251
SK-MEL-28 = tested on: SK-MEL-28
K562 = tested on: K562
SK-MEL-2 = tested on: SK-MEL-2
SR = tested on: SR
RPMI-8226 = tested on: RPMI-8226
OVCAR-8 = tested on: OVCAR-8
MOLT-4 = tested on: MOLT-4
HL-60 = tested on: HL-60
SW-620 = tested on: SW-620

Measured: GI50

CNC(=S)N/N=C(C)\C(=N/NC(=S)NC)c1ccccc1
53.1 µM: HCT-15
inactive: NCI-H460 25.7 µM | HCT-116 31.6 µM | UACC-257 > 100 µM | M14 61.4 µM | LOX IMVI 42.1 µM | BT-549 > 100 µM | SNB-19 70.3 µM | NCI-H226 63.7 µM | SK-OV-3 > 100 µM | OVCAR-3 86.9 µM | MDA-N 89.7 µM | EKVX 38 µM | TK-10 > 100 µM | SF-539 > 100 µM | A549 29.2 µM | HCC 2998 > 100 µM | UO-31 30.7 µM | NCI/ADR-RES 39.3 µM | KM12 64.9 µM | MDA-MB-231 > 100 µM | PC-3 30.9 µM | IGROV-1 27.8 µM | SK-MEL-5 42.3 µM | NCI-H23 > 100 µM | Hs-578T 17.8 µM | SF-295 34.4 µM | DU-145 > 100 µM | 786-0 50 µM | OVCAR-5 > 100 µM | RXF 393 56.8 µM | HOP-62 > 100 µM | NCI-H522 28.9 µM | ACHN 19.9 µM | MCF7 82.8 µM | SNB-75 69.8 µM | UACC-62 > 100 µM | CAKI-1 96.6 µM | COLO 205 55.5 µM | Malme-3M 76.7 µM | SF-268 74.8 µM

Cc1ccc(OCC2OC(n3cnc4c(Cl)ncnc43)CC2Oc2ccc(C)cc2)cc1 (centres undefined)
inactive: CCRF-CEM 4.78 µM and 5.09 µM | BT-549 20.2 µM and 18.5 µM | NCI-H226 11.9 µM and 20.8 µM | U-251 1.97 µM and 2.55 µM | SK-OV-3 29.8 µM and 20 µM | EKVX 3.06 µM and 2.84 µM | TK-10 30.5 µM and 45 µM | SF-539 22.9 µM and 15.8 µM | SK-MEL-28 1.71 µM and 2.13 µM | NCI/ADR-RES 12.4 µM and 19.2 µM | MDA-MB-231 9.51 µM and 5.35 µM | K562 4.92 µM and 2.99 µM | SK-MEL-2 12.4 µM and 17.3 µM | SR 2.66 µM and 3.29 µM | SK-MEL-5 15.4 µM and 18.7 µM | RPMI-8226 2.69 µM and 5.31 µM | OVCAR-8 8.93 µM and 8.3 µM | Hs-578T 6.84 µM and 4.7 µM | SF-295 20 µM and 14.9 µM | 786-0 31.8 µM and 17.4 µM | OVCAR-5 26.4 µM and 24.9 µM | NCI-H522 2.27 µM and 1.71 µM | MOLT-4 2.48 µM and 2.49 µM | SNB-75 26.1 µM and 15.8 µM | CAKI-1 2.21 µM and 1.94 µM | HL-60 2.29 µM and 1.72 µM | SW-620 2.07 µM and 3.43 µM | SF-268 7.91 µM and 4.74 µM
